The source of these data is patent EP0115640A2, “Substituted 4-imidazolyl-pyrazoles, process for their preparation and medicaments containing them” (BAYER AG, priority 1983, dated 1984).

The first experiment concerns Thrombozytenaggregation. Description: Inhibition of collagen-induced platelet aggregation in platelet-rich plasma (turbidimetric method, aggregometer). The experiment is classed as cell-based, Human. As to conditions: Homo sapiens, Platelet; PRP, 37°C, aggregation triggered with Kollagensuspension; minimal concentration that inhibits aggregation; read-out: Hemmung der Thrombozytenaggregation minimal effektive Konzentration. An excerpt: Thrombozytenaggregationshemmung
Für die Bestimmung der thrombozytenaggregationshemmenden Wirkung wurde Blut von gesunden Spendern, die mindestens 14 Tage lang kein Medikament eingenommen hatten, verwendet. Das Blut wurde in 3,8 %-iger Natriumcitratlösung aufgenommen. Plättchenreiches Plasma (PRP) wurde durch 20 Minuten Zentrifugation bei 150 g und Raumtemperatur gewonnen (Jürgens/Beller: Klinische Methoden der Blutgerinnungsanalyse; Thieme-Verlag Stuttgart 1959). Die Plättchenaggregation wurde nach der turbidometrischen Methode (Born, G.V.R.: J. Physiol. 162, 67 (1962)) im Aggregometer bei 37°C bestimmt. Hierzu wurde PRP mit Prüfsubstanz bei 37°C inkubiert und anschließend die Aggregation durch Zugabe einer Kollagensuspension ausgelöst. Bestimmt wurde die minimale Konzentration einer Prüfsubstanz, die die Thrombozytenaggregation hemmte.
In diesem Test wird die Thrombozytenaggregation insbesondere durch die Verbindungen folgender Herstellungsbeispiele gehemmt: 1, 2, 9 und 15.
As for `c1c[nH]cn1` [Imidazol], the minimal effective concentration was 30 µg/mL.
The same measure, in the same setting: with `Cn1cc(-n2ccnc2)c(C(C)(C)COc2ccc(Cl)cc2)n1` [Beispiel 15] the figure was 30 µg/mL.

The same experiment, now with this note: result in words, PRP, collagen-induced.
Take `Cn1cc(-n2ccnc2)c(C(C)(C)C)n1` [Beispiel 2, 3-tert.-Butyl-1-methyl-4-(imidazol-1-yl)-pyrazol]: the Thrombozytenaggregation gehemmt entry is given as “gehemmt”.
With `CC(C)(COc1ccc(Cl)cc1Cl)c1n[nH]cc1-n1ccnc1` [Beispiel 9], the Thrombozytenaggregation gehemmt result was “gehemmt”.
As for `CC(C)(C)c1n[nH]cc1-n1ccnc1` [Beispiel 1], the Thrombozytenaggregation gehemmt entry is given as “gehemmt”.
On the same count and under the same terms, for `Cn1cc(-n2ccnc2)c(C(C)(C)COc2ccc(Cl)cc2)n1` [Beispiel 15] the value was “gehemmt”.
